Patent US6914045B2, “Glycopeptide antibiotics” (Wyeth Holdings Corporation, priority 2001, dated 2005)
Values after ≈ are worked out from the molar mass of the structure shown.

Tests used:
Assay in all cases: in vitro antibacterial evaluation, MIC by broth dilution
Assay type in all cases: cell-based
Enterococcus sp. = settings: broth dilution, 18 hours at 35° C.
Method in brief: (§1)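 MIC = lowest antibiotic concentration preventing visible growth; inoculum 5×10^5 CFU/mL; drug range 64-0.06 μg/mL; Muller-Hinton II […]; NCCLS M7-A2 guidance.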

Staphylococcus sp. = settings: broth dilution, 18 hours at 35° C.
Method in brief: as §1

Streptococcus sp. = settings: broth dilution, 18 hours at 35° C.
Method in brief: as §1

Escherichia coli = settings: 18 hours at 35° C.

Question: For `CC(c1ccccc1)C1NC(=O)CNC(=O)C(CO)NC(=O)C(C(O)C2CNC(=N)N2C2OC(CO)C(O)C(O)C2O)NC(=O)C(C(O)C2CNC(=N)N2)NC(=O)C(Cc2ccc(OC3OC(CO)C(OC4OC5COC6(CC7CCC6(C)C7(C)C)OC5C(O)C4O)C(O)C3O)cc2)NC1=O` (stereo not drawn) [Example 215], which “MIC Enterococcus avium (GC 4558)” value (Enterococcus sp.) is on record?
Answer: The value was 0.5 µg/mL (≈ 0.35 µM).

Question: What about the “MIC Enterococcus faecalis (ATCC 29212)” value (Enterococcus sp.) of the same molecule?
Answer: Its value is 0.5 µg/mL (≈ 0.35 µM).

Question: What about the “MIC Enterococcus faecalis (GC 2242)” value (Enterococcus sp.) of the same molecule?
Answer: The value was 1 µg/mL (≈ 0.7 µM).

Question: And the “MIC Enterococcus faecalis (GC 2691)” value (Enterococcus sp.)?
Answer: Its value is 1 µg/mL (≈ 0.7 µM).

Question: What about the “MIC Enterococcus faecalis (GC 3059)” value (Enterococcus sp.) of the same molecule?
Answer: The value was 1 µg/mL (≈ 0.7 µM).

Question: And the “MIC Enterococcus faecalis (GC 4552)” value (Enterococcus sp.)?
Answer: Its value is 1 µg/mL (≈ 0.7 µM).

Question: And the “MIC Enterococcus faecalis (GC 4553)” value (Enterococcus sp.)?
Answer: The value was 0.5 µg/mL (≈ 0.35 µM).

Question: And the “MIC Enterococcus faecalis (GC 4554)” value (Enterococcus sp.)?
Answer: The value was 1 µg/mL (≈ 0.7 µM).

Question: And the “MIC Enterococcus faecalis (GC 6189)” value (Enterococcus sp.)?
Answer: The value was 1 µg/mL (≈ 0.7 µM).

Question: And the “MIC Enterococcus faecium (GC 2243)” value (Enterococcus sp.)?
Answer: The value was 0.5 µg/mL (≈ 0.35 µM).

Question: What about the “MIC Enterococcus faecium (GC 4556)” value (Enterococcus sp.) of the same molecule?
Answer: The value was 1 µg/mL (≈ 0.7 µM).

Question: What about the “MIC Enterococcus faecium (GC 4557)” value (Enterococcus sp.) of the same molecule?
Answer: The value was 0.5 µg/mL (≈ 0.35 µM).

Question: What about the “MIC Enterococcus faecalis (ATCC 29212)” value (Enterococcus sp.; inoculum 5×10^5 CFU/mL, strain ATCC 29212) of the same molecule?
Answer: Its value is 0.5 µg/mL (≈ 0.35 µM).

Question: And the “MIC Enterococcus faecalis (GC 2242)” value (Enterococcus sp.; inoculum 5×10^5 CFU/mL, strain GC 2242)?
Answer: Its value is 1 µg/mL (≈ 0.7 µM).

Question: And the “MIC Enterococcus faecium (GC 2243)” value (Enterococcus sp.; inoculum 5×10^5 CFU/mL, strain GC 2243)?
Answer: Its value is 0.5 µg/mL (≈ 0.35 µM).

Question: What about the “MIC Enterococcus faecalis (GC 2691)” value (Enterococcus sp.; inoculum 5×10^5 CFU/mL, strain GC 2691) of the same molecule?
Answer: Its value is 1 µg/mL (≈ 0.7 µM).

Question: And the “MIC Enterococcus faecalis (GC 3059)” value (Enterococcus sp.; inoculum 5×10^5 CFU/mL, strain GC 3059)?
Answer: Its value is 1 µg/mL (≈ 0.7 µM).

Question: And the “MIC Enterococcus faecalis (GC 4552)” value (Enterococcus sp.; inoculum 5×10^5 CFU/mL, strain GC 4552)?
Answer: Its value is 1 µg/mL (≈ 0.7 µM).

Question: And the “MIC Enterococcus faecalis (GC 4553)” value (Enterococcus sp.; inoculum 5×10^5 CFU/mL, strain GC 4553)?
Answer: Its value is 0.5 µg/mL (≈ 0.35 µM).

Question: And the “MIC Enterococcus faecalis (GC 4554)” value (Enterococcus sp.; inoculum 5×10^5 CFU/mL, strain GC 4554)?
Answer: The value was 1 µg/mL (≈ 0.7 µM).

Question: What about the “MIC Enterococcus faecium (GC 4556)” value (Enterococcus sp.; inoculum 5×10^5 CFU/mL, strain GC 4556) of the same molecule?
Answer: Its value is 1 µg/mL (≈ 0.7 µM).

Question: What about the “MIC Enterococcus faecium (GC 4557)” value (Enterococcus sp.; inoculum 5×10^5 CFU/mL, strain GC 4557) of the same molecule?
Answer: The value was 0.5 µg/mL (≈ 0.35 µM).

Question: What about the “MIC Enterococcus avium (GC 4558)” value (Enterococcus sp.; inoculum 5×10^5 CFU/mL, strain GC 4558) of the same molecule?
Answer: Its value is 0.5 µg/mL (≈ 0.35 µM).

Question: What about the “MIC Enterococcus faecalis (GC 6189)” value (Enterococcus sp.; inoculum 5×10^5 CFU/mL, strain GC 6189) of the same molecule?
Answer: Its value is 1 µg/mL (≈ 0.7 µM).

Question: What about the “MIC Staphylococcus aureus (ATCC 29213)” value (Staphylococcus sp.; strain ATCC 29213) of the same molecule?
Answer: The value was 0.5 µg/mL (≈ 0.35 µM).

Question: What about the “MIC Staphylococcus aureus (GC 1131)” value (Staphylococcus sp.; strain GC 1131) of the same molecule?
Answer: The value was 0.5 µg/mL (≈ 0.35 µM).

Question: And the “MIC Staphylococcus aureus (GC 3051)” value (Staphylococcus sp.; strain GC 3051)?
Answer: The value was 0.5 µg/mL (≈ 0.35 µM).

Question: What about the “MIC Staphylococcus aureus (GC 3053)” value (Staphylococcus sp.; strain GC 3053) of the same molecule?
Answer: Its value is 1 µg/mL (≈ 0.7 µM).

Question: What about the “MIC Staphylococcus aureus (GC 4541)” value (Staphylococcus sp.; strain GC 4541) of the same molecule?
Answer: Its value is 0.5 µg/mL (≈ 0.35 µM).

Question: What about the “MIC Staphylococcus aureus (GC 4542)” value (Staphylococcus sp.; strain GC 4542) of the same molecule?
Answer: Its value is 0.5 µg/mL (≈ 0.35 µM).

Question: And the “MIC Staphylococcus aureus-SMITH (GC 4543)” value (Staphylococcus sp.; strain GC 4543)?
Answer: The value was less than 0.12 µg/mL.

Question: And the “MIC Staphylococcus aureus (GC 4544)” value (Staphylococcus sp.; strain GC 4544)?
Answer: The value was 0.5 µg/mL (≈ 0.35 µM).

Question: What about the “MIC Staphylococcus aureus (GC 4545)” value (Staphylococcus sp.; strain GC 4545) of the same molecule?
Answer: Its value is 1 µg/mL (≈ 0.7 µM).

Question: And the “MIC Staphylococcus haemolyticus (GC 4546)” value (Staphylococcus sp.; strain GC 4546)?
Answer: Its value is 0.5 µg/mL (≈ 0.35 µM).

Question: And the “MIC Coagulase Negative Staphylococcus (GC 4547)” value (Staphylococcus sp.; strain GC 4547)?
Answer: The value was 0.5 µg/mL (≈ 0.35 µM).

Question: And the “MIC Coagulase Negative Staphylococcus (GC 4548)” value (Staphylococcus sp.; strain GC 4548)?
Answer: Its value is 0.5 µg/mL (≈ 0.35 µM).

Question: What about the “MIC Coagulase Negative Staphylococcus (GC 4549)” value (Staphylococcus sp.; strain GC 4549) of the same molecule?
Answer: Its value is less than 0.12 µg/mL.

Question: And the “MIC Coagulase Negative Staphylococcus (GC 4551)” value (Staphylococcus sp.; strain GC 4551)?
Answer: The value was 0.5 µg/mL (≈ 0.35 µM).

Question: And the “MIC Streptococcus agalactiae (GC 4564)” value (Streptococcus sp.)?
Answer: Its value is less than 0.12 µg/mL.

Question: And the “MIC Streptococcus pneumoniae (ATCC 6301)” value (Streptococcus sp.)?
Answer: Its value is less than 0.12 µg/mL.

Question: What about the “MIC Streptococcus pneumoniae (GC 1894)” value (Streptococcus sp.) of the same molecule?
Answer: Its value is less than 0.12 µg/mL.

Question: What about the “MIC Streptococcus pneumoniae (GC 4565)” value (Streptococcus sp.) of the same molecule?
Answer: The value was less than 0.12 µg/mL.

Question: And the “MIC Streptococcus pyogenes (GC 4563)” value (Streptococcus sp.)?
Answer: Its value is less than 0.12 µg/mL.

Question: What about the “MIC Streptococcus pneumoniae (ATCC 6301)” value (Streptococcus sp.; inoculum 5×10^5 CFU/mL, strain ATCC 6301) of the same molecule?
Answer: The value was less than 0.12 µg/mL.

Question: What about the “MIC Streptococcus pneumoniae (GC 1894)” value (Streptococcus sp.; inoculum 5×10^5 CFU/mL, strain GC 1894) of the same molecule?
Answer: The value was less than 0.12 µg/mL.

Question: And the “MIC Streptococcus pyogenes (GC 4563)” value (Streptococcus sp.; inoculum 5×10^5 CFU/mL, strain GC 4563)?
Answer: The value was less than 0.12 µg/mL.

Question: What about the “MIC Streptococcus agalactiae (GC 4564)” value (Streptococcus sp.; inoculum 5×10^5 CFU/mL, strain GC 4564) of the same molecule?
Answer: Its value is less than 0.12 µg/mL.

Question: What about the “MIC Streptococcus pneumoniae (GC 4565)” value (Streptococcus sp.; inoculum 5×10^5 CFU/mL, strain GC 4565) of the same molecule?
Answer: Its value is less than 0.12 µg/mL.

Question: And the “MIC Escherichia coli (ATCC 25922)” value (Escherichia coli)?
Answer: Its value is 32 µg/mL (≈ 22.4 µM).

Question: What about the “MIC Escherichia coli (GC 4559)” value (Escherichia coli) of the same molecule?
Answer: Its value is 32 µg/mL (≈ 22.4 µM).

Question: What about the “MIC Escherichia coli (GC 4560)” value (Escherichia coli) of the same molecule?
Answer: Its value is 1 µg/mL (≈ 0.7 µM).
